Test results as given in patent US7132252B2, “Methods for detecting the interaction of compounds with cytochrome P450 using optical molecular sensors” (Invitrogen Corporation, priority 1998, dated 2006).
Several values for one entry are separate records, joined by “and”; a condition that tells them apart may be missing. Equal values may be shown once.

What was measured:
CYP2C9 [1] = biological target: T1, CYP2C9 (Homo sapiens, UniProt P11712); assay: Fluorescence signal from enzymatic metabolism over reagent addition background, CYP2C9; type: biochemical; conditions: OOMR and BOMCC vs MFC (FIG. 11)
Procedure: (§1) The assays were performed in a 96-well plate at room temperature and at a volume of 100 μl/well. […] (See Table 11.) The enzyme was made up in the appropriate K+ phosphate buffer at 10× and 10 μl/well was-added to the appropriate wells. (See Table 11.) The plate was read at 3 minute intervals for 12 minutes to obtain a background fluorescence levels. Readings were briefly interrupted to allow for the addition of 10 μl of 10×NADP+ in K+ phosphate buffer to each well. (See Table 11.) The readings were resumed at 3 minute intervals for another 12 minutes. […] To permit quantitative comparison between sensors that were or would be metabolized to yield fluorescent products of differing optical properties, the signal intensity corresponding to each well was normalized by division with the initial signal intensity (wells containing enzyme and buffer). […] The later increase in signal, approximately four minutes after the second addition and at later time points, is believed to be due to the enzymatic conversion of the substrate to the product. […] [table]

CYP2C19 [2] = biological target: T2, CYP2C19 (Homo sapiens, UniProt P33261); assay: Kinetic properties of fluorogenic substrates with CYP 2C19; type: biochemical; conditions: for v (1.25 uM): turnover rate at 1.25 uM substrate; for v (1.25 uM) / v (10 uM): — = too low to quantify; for v (10 uM): turnover rate at 10 uM substrate
CYP 2B6 = biological target: T3, CYP 2B6 (Homo sapiens, UniProt P20813); assay: Kinetic properties of fluorogenic substrates with CYP 2B6; type: biochemical; conditions: for Km: human, CYP 2B6 isozyme; for Km / v (1.25 uM) / v (10 uM) / kcat: — = too low to quantify; for v (1.25 uM): turnover rate at 1.25 uM substrate; for v (10 uM): turnover rate at 10 uM substrate
T3 sequence (P20813 1-491): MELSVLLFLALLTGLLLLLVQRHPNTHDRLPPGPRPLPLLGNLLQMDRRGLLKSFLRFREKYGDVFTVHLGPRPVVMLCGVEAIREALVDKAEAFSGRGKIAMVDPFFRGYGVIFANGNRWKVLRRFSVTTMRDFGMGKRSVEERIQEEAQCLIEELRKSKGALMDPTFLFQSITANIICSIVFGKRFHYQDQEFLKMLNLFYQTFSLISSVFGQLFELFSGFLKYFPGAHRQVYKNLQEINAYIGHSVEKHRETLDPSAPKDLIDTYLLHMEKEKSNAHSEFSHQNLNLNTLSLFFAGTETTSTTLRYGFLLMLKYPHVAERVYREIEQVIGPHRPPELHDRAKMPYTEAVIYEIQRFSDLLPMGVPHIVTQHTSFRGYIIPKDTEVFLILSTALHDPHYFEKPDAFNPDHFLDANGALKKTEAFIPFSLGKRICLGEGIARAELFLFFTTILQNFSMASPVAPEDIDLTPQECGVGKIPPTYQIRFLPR

CYP3A4 [3] = biological target: T4, CYP3A4 (Homo sapiens, UniProt P08684); assay: Kinetic properties of fluorogenic substrates with CYP 3A4; type: biochemical; conditions: for v (1.25 uM): turnover rate at 1.25 uM substrate; for v (10 uM): turnover rate at 10 uM substrate
From the text: For further understanding these terms in the context of this invention, attention is directed to FIG. 4 and the analysis of FIG. 4.
(§2) (respectively, MFC and MR).

CYP3A4 [4] = biological target: T4, CYP3A4; assay: Fluorescence signal from enzymatic metabolism over reagent addition background, CYP3A4; type: biochemical; conditions: BOMR vs benzylresorufin (FIG. 8); BOMCC vs BFC (FIG. 9)
Procedure: as §1

CYP2C9 [5] = biological target: T1, CYP2C9; assay: Kinetic properties of fluorogenic substrates with CYP 2C9; type: biochemical; conditions: for v (1.25 uM): turnover rate at 1.25 uM substrate; for v (10 uM): turnover rate at 10 uM substrate
CYP3A4 [6] = biological target: T4, CYP3A4; assay: Kinetics of BOMR and BR toward CYP 3A4 (FIG. 4); type: biochemical; conditions: BOMR versus BR
From the text: Whichever of the four abstractable hydrogen atoms (designated H^1 and H^2 in this representation of BOMR) is removed in the initial reaction step, with reference to Reaction Scheme 1 of FIG. 1, the hydroxylation product will spontaneously decompose to the free resorufin dye. In addition, the benzyloxy group, attached to the carbon carrying the two hydrogens designated H^2, contributes an inductive electronic effect on that carbon, which can stabilize the radical formed during abstraction of one of the H^2 hydrogens by a cytochrome P450.
Optimization of assay conditions was, and is preferably, accomplished through statistically validated Design of Experiments methodologies, using the commercial software package “Design-Expert®” produced by Stat-Ease® Inc. The data shown in FIGS. 4 and 5 were obtained with initial optimization.

CYP 1A2 = biological target: T5, CYP 1A2 (Homo sapiens, UniProt P05177); assay: Kinetic properties of fluorogenic substrates with CYP 1A2; type: biochemical
T5 sequence (P05177 1-516): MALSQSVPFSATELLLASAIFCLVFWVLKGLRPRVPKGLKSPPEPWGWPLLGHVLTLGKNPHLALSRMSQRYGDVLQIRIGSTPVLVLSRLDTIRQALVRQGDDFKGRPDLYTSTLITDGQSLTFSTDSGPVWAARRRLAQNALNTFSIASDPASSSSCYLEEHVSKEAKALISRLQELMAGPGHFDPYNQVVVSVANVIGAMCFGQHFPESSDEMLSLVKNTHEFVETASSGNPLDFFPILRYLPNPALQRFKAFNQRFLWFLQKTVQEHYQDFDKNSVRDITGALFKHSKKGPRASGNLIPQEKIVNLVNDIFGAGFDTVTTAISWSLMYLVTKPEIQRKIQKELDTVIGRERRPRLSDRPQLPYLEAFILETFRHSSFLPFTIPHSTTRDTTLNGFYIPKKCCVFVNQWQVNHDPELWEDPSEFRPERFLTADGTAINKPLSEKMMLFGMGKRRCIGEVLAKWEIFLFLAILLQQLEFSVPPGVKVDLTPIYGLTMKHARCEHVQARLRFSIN

CYP2C19 [7] = biological target: T2, CYP2C19; assay: Fluorescence signal from enzymatic metabolism over reagent addition background, CYP2C19; type: biochemical; conditions: EOMCC vs CEC (FIG. 12)
Procedure: as §1

CYP2D6 [8] = biological target: T6, CYP2D6 (Homo sapiens, UniProt P10635); assay: Fluorescence signal from enzymatic metabolism over reagent addition background, CYP2D6; type: biochemical; conditions: MOBFC vs AMMC (Gentest) (FIG. 10)
Procedure: as §1

CYP2D6 [9] = biological target: T6, CYP2D6; assay: Kinetic properties of fluorogenic substrates with CYP 2D6; type: biochemical
From the text: as §2

[10] = Stability of substrate stock solution; type: physicochemical; conditions: 10 mM in acetonitrile, stored at 4° C. in the dark
Procedure: Substrate stock solutions were stable when stored at 4° C. in the dark. 7-Hydroxy-4trifluoromethylcoumarin dye standard was prepared at 1 mM in DMSO. […] Control wells receive the appropriate inhibition controls for each isozyme. Also, inhibitors are added to wells that contain the dye standards to permit addition of substrate and enzyme to all wells of the plate. • 2. […] 30 μl/well Enzyme/Recycling System buffer was added.

CYP3A4 [11] = biological target: T4, CYP3A4; assay: in vitro; conditions: pH 8
From the text: Data for a product fluorescence standard calibration curve was generated in the following manner.

T6 sequence (P10635 whole entry): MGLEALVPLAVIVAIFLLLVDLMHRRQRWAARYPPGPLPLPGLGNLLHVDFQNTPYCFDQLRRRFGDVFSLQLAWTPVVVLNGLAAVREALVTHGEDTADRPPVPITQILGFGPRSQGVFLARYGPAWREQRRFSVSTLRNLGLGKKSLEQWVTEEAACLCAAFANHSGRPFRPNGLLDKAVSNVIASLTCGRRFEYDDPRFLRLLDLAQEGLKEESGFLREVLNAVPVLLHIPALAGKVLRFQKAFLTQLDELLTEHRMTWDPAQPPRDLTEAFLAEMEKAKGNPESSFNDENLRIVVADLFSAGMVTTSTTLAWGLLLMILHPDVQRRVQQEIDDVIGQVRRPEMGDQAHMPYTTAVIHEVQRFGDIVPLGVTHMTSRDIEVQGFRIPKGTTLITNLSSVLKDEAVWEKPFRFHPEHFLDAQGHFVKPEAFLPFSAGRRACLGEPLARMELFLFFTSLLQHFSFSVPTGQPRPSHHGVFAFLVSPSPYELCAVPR
T2 sequence (P33261 whole entry): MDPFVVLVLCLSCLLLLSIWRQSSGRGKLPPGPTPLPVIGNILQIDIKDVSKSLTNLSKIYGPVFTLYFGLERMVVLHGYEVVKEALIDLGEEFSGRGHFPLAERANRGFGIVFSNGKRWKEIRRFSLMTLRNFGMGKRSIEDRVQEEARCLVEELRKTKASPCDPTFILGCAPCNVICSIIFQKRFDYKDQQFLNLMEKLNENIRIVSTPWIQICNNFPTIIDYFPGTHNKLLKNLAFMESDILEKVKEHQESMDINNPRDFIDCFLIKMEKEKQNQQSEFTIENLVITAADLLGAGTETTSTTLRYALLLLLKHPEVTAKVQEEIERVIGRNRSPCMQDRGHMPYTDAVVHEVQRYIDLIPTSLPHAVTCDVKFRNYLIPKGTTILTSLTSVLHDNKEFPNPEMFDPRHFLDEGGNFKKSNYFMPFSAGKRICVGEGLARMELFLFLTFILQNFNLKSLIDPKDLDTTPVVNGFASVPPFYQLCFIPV
T1 sequence (P11712 whole entry): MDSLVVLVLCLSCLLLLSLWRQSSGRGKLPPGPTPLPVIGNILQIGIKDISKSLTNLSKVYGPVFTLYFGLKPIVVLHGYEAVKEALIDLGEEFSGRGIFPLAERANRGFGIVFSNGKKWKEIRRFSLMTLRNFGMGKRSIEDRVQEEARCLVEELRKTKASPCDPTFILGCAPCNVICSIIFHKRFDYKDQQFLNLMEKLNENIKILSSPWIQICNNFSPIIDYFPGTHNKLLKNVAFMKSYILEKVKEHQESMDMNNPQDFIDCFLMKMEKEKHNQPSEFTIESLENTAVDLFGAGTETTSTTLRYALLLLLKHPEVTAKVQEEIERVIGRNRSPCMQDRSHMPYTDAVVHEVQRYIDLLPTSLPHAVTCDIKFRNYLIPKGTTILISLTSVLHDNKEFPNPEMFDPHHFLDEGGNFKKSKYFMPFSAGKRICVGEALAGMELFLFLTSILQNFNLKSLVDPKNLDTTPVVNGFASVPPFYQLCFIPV
T4 sequence (P08684 whole entry): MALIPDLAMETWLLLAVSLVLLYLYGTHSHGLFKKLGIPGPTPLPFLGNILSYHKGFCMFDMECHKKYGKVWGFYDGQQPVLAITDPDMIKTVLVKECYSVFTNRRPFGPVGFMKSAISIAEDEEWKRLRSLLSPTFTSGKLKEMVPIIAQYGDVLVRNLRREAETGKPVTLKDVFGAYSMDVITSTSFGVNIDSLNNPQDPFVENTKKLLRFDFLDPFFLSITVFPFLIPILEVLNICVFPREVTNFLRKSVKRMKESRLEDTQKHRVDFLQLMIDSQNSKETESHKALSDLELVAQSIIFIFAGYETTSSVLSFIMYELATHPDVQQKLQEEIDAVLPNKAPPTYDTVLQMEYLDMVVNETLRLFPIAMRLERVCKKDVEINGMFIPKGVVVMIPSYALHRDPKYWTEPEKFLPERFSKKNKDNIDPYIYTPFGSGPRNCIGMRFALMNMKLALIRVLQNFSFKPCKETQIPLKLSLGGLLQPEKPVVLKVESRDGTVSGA

Compound: N#Cc1cc2ccc(OCOCc3ccccc3)cc2oc1=O [BOMCC, 7-Benzyloxymethyloxy-3-cyanocoumarin]
- signal to background versus prior commercially available substrate (CYP2C9 [1]): superior signal to background
- type of kinetics (CYP2C19 [2]): Michaelis-Menten
- v (1.25 uM) (CYP2C19 [2]): 0.16 min⁻¹
- v (10 uM) (CYP2C19 [2]): 0.68 min⁻¹
- type of kinetics (CYP 2B6): Michaelis-Menten
- Km (CYP 2B6): 52 µM
- v (1.25 uM) (CYP 2B6): 0.38 min⁻¹
- v (10 uM) (CYP 2B6): 3.05 min⁻¹
- kcat (CYP 2B6): 1.1 s⁻¹
- type of kinetics (CYP3A4 [3]): sigmoidal
- kcat (CYP3A4 [3]; ( ) = from Michaelis-Menten fit, — = too low to quantify): (10.0) min-1
- v (1.25 uM) (CYP3A4 [3]; — = too low to quantify): 0.12 min⁻¹
- v (10 uM) (CYP3A4 [3]; — = too low to quantify): 0.98 min⁻¹
- signal to background versus prior commercially available substrate (CYP3A4 [4]): superior signal to background
- type of kinetics (CYP2C9 [5]): Michaelis-Menten
- v (1.25 uM) (CYP2C9 [5]; — = too low to quantify): 0.04 min⁻¹
- v (10 uM) (CYP2C9 [5]; — = too low to quantify): 0.42 min⁻¹

Compound: O=c1ccc2nc3ccc(OCOCc4ccccc4)cc3oc-2c1 [BOMR, Benzyloxymethylresorufin]
- CYP 3A4 turnover rate relative to BR (CYP3A4 [6]): approximately five
- type of kinetics (CYP 2B6): notMichaelis-Menten
- Km (CYP 2B6): 0.73 µM
- v (1.25 uM) (CYP 2B6): 0.28 min⁻¹
- v (10 uM) (CYP 2B6): 0.71 min⁻¹
- kcat (CYP 2B6): 0.013 s⁻¹
- type of kinetics (CYP3A4 [3]): Michaelis-Menten
- v (1.25 uM) (CYP3A4 [3]; — = too low to quantify): 0.55 min⁻¹
- v (10 uM) (CYP3A4 [3]; — = too low to quantify): 0.88 min⁻¹
- signal to background versus prior commercially available substrate (CYP3A4 [4]): superior signal to background

Compound: CCOCOc1ccc2cc(C#N)c(=O)oc2c1 [EOMCC]
- type of kinetics (CYP 1A2): Michaelis-Menten
- v (1.25 uM) (CYP 1A2; turnover rate at 1.25 uM substrate): 1.77 min⁻¹
- v (10 uM) (CYP 1A2; turnover rate at 10 uM substrate): 9.95 min⁻¹
- type of kinetics (CYP2C19 [2]): Michaelis-Menten
- v (1.25 uM) (CYP2C19 [2]): 0.34 min⁻¹
- v (10 uM) (CYP2C19 [2]): 2.22 min⁻¹
- signal to background versus prior commercially available substrate (CYP2C19 [7]): superior signal to background

Compound: COc1ccc(COc2ccc3c(C(F)(F)F)cc(=O)oc3c2)cc1 [MOBFC]
- signal to background versus prior commercially available substrate (CYP2D6 [8]): superior signal to background
- type of kinetics (CYP2D6 [9]): Michaelis-Menten
- v (1.25 uM) (CYP2D6 [9]; turnover rate at 1.25 uM substrate, — = too low to quantify): 0.09 min⁻¹
- v (10 uM) (CYP2D6 [9]; turnover rate at 10 uM substrate, — = too low to quantify): 0.49 min⁻¹
- stability of substrate stock solutions [10]: stable
- type of kinetics (CYP3A4 [3]): Michaelis-Menten
- v (1.25 uM) (CYP3A4 [3]; — = too low to quantify): 0.0214 min⁻¹ and 0.02 min⁻¹
- v (10 uM) (CYP3A4 [3]; — = too low to quantify): 0.3453 min⁻¹ and 0.35 min⁻¹
- type of kinetics (CYP2C9 [5]): Michaelis-Menten
- v (1.25 uM) (CYP2C9 [5]; — = too low to quantify): 0.02 min⁻¹
- v (10 uM) (CYP2C9 [5]; — = too low to quantify): 0.188 min⁻¹ and 0.19 min⁻¹
- kcat (CYP2C9 [5]; — = too low to quantify): 0.005 s⁻¹

Compound: CCCCCCCCOCOc1ccc2nc3ccc(=O)cc-3oc2c1 [OOMR, Octyloxymethylresorufin]
- signal to background versus prior commercially available substrate (CYP2C9 [1]): superior signal to background
- v (1.25 uM) (CYP2C19 [2]): 0.1 min⁻¹
- v (10 uM) (CYP2C19 [2]): 0.13 min⁻¹
- v (1.25 uM) (CYP3A4 [3]; — = too low to quantify): 0.323 min⁻¹
- v (10 uM) (CYP3A4 [3]; — = too low to quantify): 0.601 min⁻¹
- v (1.25 uM) (CYP2C9 [5]; — = too low to quantify): 0.137 min⁻¹
- v (10 uM) (CYP2C9 [5]; — = too low to quantify): 0.31 min⁻¹

Compound: Clc1ccc(COC(Cn2ccnc2)c2ccc(Cl)cc2Cl)c(Cl)c1 (stereo not drawn) [miconazole]
- inhibition at 1 h, 10 µM (CYP3A4 [11]): ~100%
